We go through twelve molecules from ChEMBL document CHEMBL1201862, “PubChem BioAssay data set” (2004).

SMILES strings stand for the structures.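 Protocol summary: plate cells (96-well), add compound at 5 concentrations, incubate 48 h, interpolate endpoints linearly. At the GI50, growth is halved.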 Active and inactive are the calls of the source. No stated cut-off is given here; in the data, active = GI50 up to about 1.1 µM and inactive = higher.

Common to all, as to test: NCI-60 cell line screen, 48 h
Experiment [1] relates to 786-0.
The test system of experiment [2] is DU-145.
Experiment [3] relates to EKVX.
For experiment [4], the system named is HCC 2998.
The subject of experiment [5] is HCT-116.
Experiment [6] deals with HOP-92.
The test system of experiment [7] is HT-29.
Experiment [8] has as its system M14.
Experiment [9] has as its system MDA-MB-231.
Experiment [10] concerns NCI-H226.
Experiment [11] concerns NCI-H460.
The test system of experiment [12] is OVCAR-5.
Experiment [13] deals with SF-295.
Experiment [14] has as its system SK-OV-3.
In experiment [15] the test system is SN12C.
The test system of experiment [16] is UACC-62.
Experiment [17] has as its system UO-31.

On to `O=C(NCCCN(CCCCN(CCCNC(=O)C(F)(F)F)Cc1ccccc1)Cc1ccccc1)C(F)(F)F`, for which the GI50 in experiment [1] was 12.6 µM (inactive); in experiment [2] it was 19.7 µM (inactive); in [3], 12.6 µM (inactive); in experiment [4], 4.24 µM (inactive); in experiment [5], 11.5 µM (inactive); in experiment [6], 10.5 µM (inactive). In addition, the GI50 in experiment [7] is 6.49 µM (inactive); in [8], 3.49 µM (inactive); in experiment [9] it was 17.5 µM (inactive); in experiment [10] it was 17.2 µM (inactive); in [11] it was 10.4 µM (inactive); in experiment [12] it was 19.9 µM (inactive). In addition, the GI50 was 16.5 µM (inactive) in experiment [13]; 20.1 µM (inactive) in experiment [14]; 15.4 µM (inactive) in experiment [15]; 16.9 µM (inactive) in experiment [16]; 4.63 µM (inactive) in [17].
Consider `O=C(Nc1ccccc1)c1cc2ccccc2c(/N=N\c2cccc([N+](=O)[O-])c2)c1O`, for which the GI50 is 31.3 µM (inactive) in experiment [1]; > 100 µM (inactive) in experiment [2]; 39 µM (inactive) in experiment [3]; > 100 µM (inactive) in experiment [4]; > 100 µM (inactive) in [5]; > 100 µM (inactive) in experiment [6]. Besides, the GI50 in experiment [7] is > 100 µM (inactive); in experiment [8], > 100 µM (inactive); in experiment [9] it was 56.8 µM (inactive); in experiment [10], > 100 µM (inactive); in experiment [11], > 100 µM (inactive); in experiment [12] it was > 100 µM (inactive). Also, the GI50 is > 100 µM (inactive) in [13]; 30.3 µM (inactive) in experiment [14]; > 100 µM (inactive) in experiment [15]; > 100 µM (inactive) in [16]; > 100 µM (inactive) in [17].
Take `CC#CS(=O)(=O)c1ccccc1`: the GI50 was 3.43 µM (inactive) in experiment [1]; 2.82 µM (inactive) in experiment [2]; 18.6 µM (inactive) in [3]; 3.96 µM (inactive) in experiment [4]; 4.36 µM (inactive) in [5]; 2.51 µM (inactive) in experiment [6]. Moreover, the GI50 in experiment [7] is 3.67 µM (inactive); in [8], 5.87 µM (inactive); in [9] it was 10.6 µM (inactive); in experiment [10], 9.91 µM (inactive); in [11], 17.5 µM (inactive); in experiment [12] it was 5.58 µM (inactive). Further, the GI50 in experiment [13] was 3.56 µM (inactive); in experiment [14], 17.3 µM (inactive); in experiment [15], 6.32 µM (inactive); in experiment [16], 3.24 µM (inactive); in experiment [17], 1.86 µM (inactive).
In the case of `CCCCn1c2c(n(CCCC)c1=S)-c1c(n(CCCC)c(=S)n1CCCC)S[Se][Se]S2`, the GI50 in experiment [1] is 4.62 µM (inactive); in experiment [2], 16.9 µM (inactive); in experiment [3], 6.01 µM (inactive); in experiment [4], 23.6 µM (inactive); in [5], 4.27 µM (inactive); in [6] it was 0.942 µM (active). For the same molecule, the GI50 in experiment [7] is 7.23 µM (inactive); in [8] it was 8.59 µM (inactive); in experiment [9], 2.33 µM (inactive); in [10] it was 14.6 µM (inactive); in [11], 9.95 µM (inactive); in experiment [12], 2.17 µM (inactive). In addition, the GI50 in experiment [13] is 3.51 µM (inactive); in experiment [14], 22 µM (inactive); in experiment [15], 7.11 µM (inactive); in [16], 5.58 µM (inactive); in [17] it was 2.5 µM (inactive).
With `CC1=C[C@H](O)[C@@]2(C)[C@@H]([C@@H]1C)[C@H]1CC[C@@H]3[C@@]4(C)CC[C@H](O)C(C)(C)[C@@H]4CC[C@@]3(C)[C@]1(C)C[C@@H]2O`, the GI50 is 14 µM (inactive) in experiment [1]; 16.4 µM (inactive) in [2]; 12.4 µM (inactive) in [3]; 18.8 µM (inactive) in experiment [4]; 12.4 µM (inactive) in experiment [5]; 13.8 µM (inactive) in experiment [6]. The GI50 is 13.8 µM (inactive) in experiment [7]; 17.1 µM (inactive) in experiment [8]; 20.3 µM (inactive) in experiment [9]; 23.1 µM (inactive) in experiment [10]; 18.9 µM (inactive) in [11]; 15.6 µM (inactive) in [12]. The GI50 in [13] is 16.1 µM (inactive); in [14], 18.4 µM (inactive); in experiment [15] it was 15.2 µM (inactive); in [16], 18.8 µM (inactive); in experiment [17] it was 18.6 µM (inactive).
For `OC1c2ccccc2[C@@H]2[C@H]1[C@@H](c1ccccc1)C1(Cc3ccccc3C1O)[C@H]2c1ccccc1` (stereo partly drawn), the GI50 in experiment [1] was 2.96 µM (inactive); in experiment [2], 9.86 µM (inactive); in [3], 6.35 µM (inactive); in experiment [4], 1.91 µM (inactive); in experiment [5] it was 3.03 µM (inactive); in experiment [6], 3.35 µM (inactive). Besides, the GI50 in [7] is 2.29 µM (inactive); in experiment [8], 4.75 µM (inactive); in experiment [9] it was 5.22 µM (inactive); in [10], 5.28 µM (inactive); in experiment [11] it was 3.13 µM (inactive); in [12], 11.1 µM (inactive). The GI50 in experiment [13] was 6.75 µM (inactive); in experiment [14], 10.9 µM (inactive); in experiment [15] it was 1.77 µM (inactive); in experiment [16], 6.14 µM (inactive); in [17], 7.52 µM (inactive).
Turning to `CCOC(=O)/C(C#N)=C/c1ccc(SCc2ccco2)c([N+](=O)[O-])c1`, the GI50 in experiment [1], in experiment [2], in experiment [3], in experiment [4], in experiment [5] and in experiment [6] was > 100 µM (inactive) throughout. The GI50 in experiment [7], in [8], in [9], in experiment [10], in [11] and in [12] was > 100 µM (inactive) throughout. In addition, the GI50 in experiment [13] was > 100 µM (inactive); in experiment [14], > 100 µM (inactive); in experiment [15], > 100 µM (inactive); in experiment [16], 57 µM (inactive); in [17], > 100 µM (inactive).
`O=C1Oc2ccccc2C(=O)/C1=C\Nc1nc(-c2ccc(O)c(O)c2)cs1`: the GI50 in experiment [1] is 2.54 µM (inactive); in [2] it was 4.94 µM (inactive); in experiment [3] it was 12.7 µM (inactive); in [4] it was 7.14 µM (inactive); in [5], 2.7 µM (inactive); in experiment [6], 13.5 µM (inactive). Further, the GI50 is 4.63 µM (inactive) in [7]; 3.22 µM (inactive) in experiment [8]; 5.7 µM (inactive) in [9]; 6.31 µM (inactive) in experiment [10]; 5.05 µM (inactive) in experiment [11]; 16.2 µM (inactive) in experiment [12]. For the same molecule, the GI50 is 24.8 µM (inactive) in experiment [13]; 7.24 µM (inactive) in experiment [14]; 4.79 µM (inactive) in [15]; 4.83 µM (inactive) in [16]; 2.79 µM (inactive) in [17].
Consider `O=[N+]([O-])c1cc(Cl)cnc1Br`, for which the GI50 in experiment [1] is 5.83 µM (inactive); in [2], 3.71 µM (inactive); in experiment [3], 4.19 µM (inactive); in experiment [4], 1.37 µM (inactive); in [5], 4.42 µM (inactive); in experiment [6], 8.75 µM (inactive). Besides, the GI50 in [7] was 3.28 µM (inactive); in [8], 3.87 µM (inactive); in [9] it was 3.45 µM (inactive); in experiment [10], 2.61 µM (inactive); in experiment [11] it was 3.95 µM (inactive); in [12], 3.27 µM (inactive). Further, the GI50 in [13] was 3.4 µM (inactive); in [14], 10.3 µM (inactive); in experiment [15], 2.92 µM (inactive); in experiment [16], 1.93 µM (inactive); in experiment [17], 1.76 µM (inactive).
As for `OCc1ccc2c(c1)CC1(C2)Cc2cc3c(cc2C1)CCC3`, the GI50 in experiment [1] is 5.51 µM (inactive); in experiment [2], 5.89 µM (inactive); in [3], 8.04 µM (inactive); in experiment [4] it was 6.12 µM (inactive); in experiment [5], 3.72 µM (inactive); in experiment [6], 8.99 µM (inactive). In addition, the GI50 in experiment [7] was 2.22 µM (inactive); in experiment [8], 3.27 µM (inactive); in [9], 1.34 µM (inactive); in experiment [10], 22.4 µM (inactive); in experiment [11], 3.87 µM (inactive); in experiment [12] it was > 100 µM (inactive). Besides, the GI50 was 3.39 µM (inactive) in [13]; 11.4 µM (inactive) in experiment [14]; 2.45 µM (inactive) in experiment [15]; 6.53 µM (inactive) in experiment [16]; 4.97 µM (inactive) in [17].
Regarding `N#Cc1c(N)nc2c3c1NC(=O)C(C(N)=O)C3c1ccccc1O2` (stereo not drawn), the GI50 in experiment [1] was 37.9 µM (inactive); in [2], 67.6 µM (inactive); in experiment [3], 37.3 µM (inactive); in [4], > 100 µM (inactive); in experiment [5], > 100 µM (inactive); in [6], 12.9 µM (inactive). For the same molecule, the GI50 is > 100 µM (inactive) in experiment [7]; > 100 µM (inactive) in experiment [8]; 28.6 µM (inactive) in [9]; > 100 µM (inactive) in [10]; > 100 µM (inactive) in experiment [11]; > 100 µM (inactive) in [12]. Further, the GI50 in experiment [13] was 32.1 µM (inactive); in [14] it was > 100 µM (inactive); in experiment [15], > 100 µM (inactive); in experiment [16], 27.5 µM (inactive); in experiment [17] it was > 100 µM (inactive).
For the molecule `Cc1ccc(OCC2OC(n3cnc4c(Cl)nc(Cl)nc43)CC2Oc2ccc(C)cc2)cc1` (stereo not drawn), the GI50 in experiment [1] was 14.5 µM (inactive); in experiment [2] it was 1.91 µM (inactive); in experiment [3], 3.52 µM (inactive); in experiment [4] it was 16.5 µM (inactive); in [5], 1.91 µM (inactive); in [6] it was 2.28 µM (inactive). For the same molecule, the GI50 is 1.57 µM (inactive) in [7]; 1.85 µM (inactive) in experiment [8]; 2.08 µM (inactive) in experiment [9]; 3 µM (inactive) in [10]; 1.87 µM (inactive) in experiment [11]; 5.78 µM (inactive) in experiment [12]. The GI50 in experiment [13] is 2.52 µM (inactive); in experiment [14] it was 19.2 µM (inactive); in [15] it was 3.85 µM (inactive); in experiment [16], 1.98 µM (inactive).
